Assay results: BindingDB's records for patent US11707539 (Tufts College, 2023)
Where “and” joins values, the source holds several entries; their conditions need not be identical. Equal entries are not always repeated. Where a SMILES comes first, the peptide text is derived from it.

Tests used:
Test in all cases: In Vitro Assay Dipeptidyl Peptidase IV. Fibroblast Activation Protein and Prolyl Oligopeptidase
Dipeptidyl peptidase 4 = Dipeptidyl peptidase 4 (Homo sapiens, UniProt P27487)
Method: (§1) The purpose of this assay is to determine the IC50 of various inhibitors against recombinant human dipeptidyl peptidase IV (DPPIV), fibroblast activation protein (FAP) or prolyl oligopeptidase (PREP). The assays are conducted in the following steps:1 Dissolve the compound in DMSO to a final concentration of […]. […] Serial dilute (1:10) the 1 mM compound stocks prepared previously into the appropriate assay buffer (FAP: 50 mM Tris, 140 mM NaCl, pH 7.5/PREP: 25 mM Tris, 0.25 M NaCl, pH 7.5/DPPIV: 25 mM Tris, pH 8.0) to one row of a 96-well plate. 3. […] 4. Dilute the enzymes into their appropriate assay buffers. The final enzyme concentrations should be 0.1, 1.2, and 0.6 nM for DPPIV, FAP and PREP respectively. Add 180 μL to each well needed in columns 2-10. Column 1 (A,B,C) should be prepared with 200 ul of appropriate assay buffer as control. Column 1 (D,E,F,G,H) should be prepared with 20 ul of appropriate assay buffer and 180 ul enzyme as no inhibitor control. 5. Add 20 μL of the compound of interest from the dilution plate prepared in step 2 to columns 2-10 of the assay plate where appropriate. Each sample should be tested in triplicate. Allow this to incubate for 10 minutes at room temperature, shaking the plate for the first two minutes. 6. Add 10 μL of 20× substrate prepared in step 3 to each well and allow this to incubate for 15 minutes at room temperature, shaking the plate for the first two minutes. 7. Read the fluorescence at λex: 380, λem: 460.

Prolyl endopeptidase = biological target: T1, Prolyl endopeptidase (Homo sapiens, UniProt P48147)
T1 sequence (P48147 whole entry): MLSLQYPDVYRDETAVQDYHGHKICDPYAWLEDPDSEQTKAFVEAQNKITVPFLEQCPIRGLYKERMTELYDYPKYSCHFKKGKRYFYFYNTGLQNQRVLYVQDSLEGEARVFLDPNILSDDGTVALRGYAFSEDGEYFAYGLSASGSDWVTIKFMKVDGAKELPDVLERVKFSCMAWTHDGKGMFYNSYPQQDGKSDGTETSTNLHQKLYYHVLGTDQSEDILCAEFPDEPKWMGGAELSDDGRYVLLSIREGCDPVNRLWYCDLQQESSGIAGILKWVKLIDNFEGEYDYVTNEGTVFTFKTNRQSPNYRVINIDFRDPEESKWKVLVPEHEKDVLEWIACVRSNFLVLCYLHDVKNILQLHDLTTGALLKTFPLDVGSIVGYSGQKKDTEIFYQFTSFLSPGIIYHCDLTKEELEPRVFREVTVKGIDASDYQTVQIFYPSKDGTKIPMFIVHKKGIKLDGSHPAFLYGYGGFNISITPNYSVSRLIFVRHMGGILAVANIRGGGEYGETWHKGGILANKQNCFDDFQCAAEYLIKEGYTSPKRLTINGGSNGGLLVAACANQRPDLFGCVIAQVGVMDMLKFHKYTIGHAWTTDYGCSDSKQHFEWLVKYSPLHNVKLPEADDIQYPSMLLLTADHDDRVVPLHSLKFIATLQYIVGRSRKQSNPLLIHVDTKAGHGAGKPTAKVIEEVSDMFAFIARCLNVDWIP
Method: as §1

Prolyl endopeptidase FAP = biological target: T2, Prolyl endopeptidase FAP (Homo sapiens, UniProt Q12884)
T2 sequence (Q12884 whole entry): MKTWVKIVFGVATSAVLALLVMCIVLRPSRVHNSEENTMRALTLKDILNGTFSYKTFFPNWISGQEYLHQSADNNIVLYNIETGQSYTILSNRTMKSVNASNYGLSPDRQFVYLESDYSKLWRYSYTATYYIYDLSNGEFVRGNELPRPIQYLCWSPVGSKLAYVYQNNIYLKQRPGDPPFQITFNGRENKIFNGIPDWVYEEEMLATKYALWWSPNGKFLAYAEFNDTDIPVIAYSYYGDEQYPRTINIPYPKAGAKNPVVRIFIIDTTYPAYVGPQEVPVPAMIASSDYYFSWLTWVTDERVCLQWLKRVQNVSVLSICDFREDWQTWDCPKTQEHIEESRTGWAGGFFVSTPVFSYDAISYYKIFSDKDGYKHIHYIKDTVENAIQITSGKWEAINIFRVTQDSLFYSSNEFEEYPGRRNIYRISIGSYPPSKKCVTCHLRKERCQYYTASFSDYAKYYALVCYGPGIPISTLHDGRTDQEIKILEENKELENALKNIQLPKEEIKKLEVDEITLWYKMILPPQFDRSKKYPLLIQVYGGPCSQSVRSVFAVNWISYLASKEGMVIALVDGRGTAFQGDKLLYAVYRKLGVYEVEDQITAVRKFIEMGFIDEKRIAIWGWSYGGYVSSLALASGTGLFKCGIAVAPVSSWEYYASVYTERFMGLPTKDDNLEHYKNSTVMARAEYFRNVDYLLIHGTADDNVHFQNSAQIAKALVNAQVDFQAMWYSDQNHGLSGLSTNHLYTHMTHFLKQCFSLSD
Method: as §1

Chain of Dipeptidyl peptidase 4 (P27487 whole entry): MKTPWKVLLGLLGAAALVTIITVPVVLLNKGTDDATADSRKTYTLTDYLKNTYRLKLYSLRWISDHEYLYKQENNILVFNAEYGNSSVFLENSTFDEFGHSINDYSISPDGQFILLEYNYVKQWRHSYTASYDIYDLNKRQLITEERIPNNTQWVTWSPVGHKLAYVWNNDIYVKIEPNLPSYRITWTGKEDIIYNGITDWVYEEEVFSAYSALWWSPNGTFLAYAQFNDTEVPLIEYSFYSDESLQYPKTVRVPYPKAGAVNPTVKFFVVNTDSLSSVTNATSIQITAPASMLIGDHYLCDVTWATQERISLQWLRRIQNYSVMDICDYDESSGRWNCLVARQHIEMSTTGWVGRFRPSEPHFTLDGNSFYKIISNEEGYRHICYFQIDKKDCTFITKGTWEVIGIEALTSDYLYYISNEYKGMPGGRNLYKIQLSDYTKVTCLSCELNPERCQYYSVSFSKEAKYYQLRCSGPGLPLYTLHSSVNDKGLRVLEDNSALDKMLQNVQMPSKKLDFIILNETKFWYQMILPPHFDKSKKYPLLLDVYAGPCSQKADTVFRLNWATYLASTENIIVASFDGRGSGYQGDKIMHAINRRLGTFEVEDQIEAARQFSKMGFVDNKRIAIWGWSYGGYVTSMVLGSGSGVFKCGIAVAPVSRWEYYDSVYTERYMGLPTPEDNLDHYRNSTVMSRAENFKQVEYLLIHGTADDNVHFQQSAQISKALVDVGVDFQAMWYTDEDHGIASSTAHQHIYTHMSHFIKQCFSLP

Row | SMILES | IC50 (Dipeptidyl peptidase 4) [nM] | IC50 (Prolyl endopeptidase) [nM] | IC50 (Prolyl endopeptidase FAP)
1 | CC(C)[C@H](NC(=O)CNC(=O)CNC(=O)CN1CCN(CC(=O)O)CCN(CC(=O)O)CCN(CC(=O)O)CC1)C(=O)N[C@H](C)C(=O)N1CCC[C@H]1B(O)O [US11707539, Compound 6522] (HELM PEPTIDE1{[O=C(O)CN1CCN(CC(=O)O)CCN(CC(=O)[*:2])CCN(CC(=O)O)CC1].G.G.V.[dA].[OB(O)[C@@H]1CCCN1[*:1]]}$$$$V2.0) | > 100000 | 13000 | 3.5 nM and 12 nM
2 | N[C@@H](CCCCNC(=O)CCCNC(=O)CN1CCN(CC(=O)O)CCN(CC(=O)O)CCN(CC(=O)O)CC1)C(=O)N1CCC[C@H]1B(O)O [US11707539, Compound 6551] |  |  | 2.6 nM and 2 nM
